Data on 3 compounds can be found in US20240082242A1, “COMBINATION THERAPIES” (IMBRIA PHARMACEUTICALS, INC., priority 2021, published 2024).

One experiment deals with explanted mouse hearts. Nature of the experiment: Langendorff ischemia-reperfusion protocol. The following applies: for infarct size: 20 μM (each) perfusion, triphenyltetrazolium staining, control 68%; for reduction of myocardial infarct size: 20 μM, vs control. Here is the method: Studies were conducted to evaluate the effect of CV-8814, a pFOX inhibitor, on protecting heart tissue from ischemia/reperfusion (I/R) injury. Similar studies were performed with trimetazidine (TMZ) as a representative pFOX reference compound. Studies were performed with TMZ alone and TMZ in combination with the metabolic enhancers (e.g., nicotinic acid) for a comparison of single agent and combination agent pharmacologic potencies. FIG. 25 is a schematic of the Langendorff Ischemia-Reperfusion protocol used to test the ability of various compounds to protect the heart from ischemic injury. Test compounds were dissolved at 20 μM in Krebs-Henseleit buffer and perfused through the tissue of mouse hearts at a constant pressure starting at time 0. For each treatment group, 10-18 hearts were tested. A Mikro-tip catheter was inserted into left ventricles to measure cardiac functions, including heart rate, coronary flow, left ventricular systolic and end-diastolic pressure, at the end of the baseline perfusion at 20 minutes. […] At the end of perfusion, hearts were cross-sectioned into five slices, and infarct size was measured by computerized planimetry of triphenyltetrazolium stained heart tissue sections. The concept of combining a pFOX inhibitor with metabolic enhancers (e.g. nicotinamide, nicotinic acid, and succinate) was evaluated in combination Langendorff I/R studies. The combinations included TMZ/nicotinamide/succinate (all at a concentration of 20 μM; coded TNS) and TMZ/nicotinic acid/succinate (all at a concentration of 20 μM; coded TNC).

In experiment [1] the test system is TAC-induced heart failure in mice. Nature of the experiment: Transverse aortic constriction (TAC) model of heart failure. Type of experiment: in vivo, mouse. The following applies: for fibrosis of myocardial tissue after six weeks: Masson's trichome, percentage of fibrotic heart tissue, control 10.7±1; for left ventricular ejection fraction (EF) throughout the six-week study: third study, minipump. Here is the method: Studies were conducted to evaluate and compare the efficacy of the reference compound TMZ with CV-8814 and CV-1018972 on ventricular remodeling, preservation of heart function and prevention of fibrosis in a transverse aortic constriction (TAC) model of heart failure in mice.
FIG. 30 is a schematic of the transverse aortic constriction (TAC) protocol used to test the ability of various compounds to protect the heart against heart failure. The aortic arc was exposed via midline incision in the chest cavity of anesthetized mice. A 27-gauge needle was tied against the transverse aorta and then promptly removed to create a ligature constriction. In vivo cardiac function was assessed by transthoracic echocardiography performed at 24-hour, 3-week, and 6-week time-points after TAC. Ventricular remodeling was determined by evaluation of heart weights (HW) and heart weight to body weight ratios (HW/BW). At study termination, hearts were excised, fixed, sectioned at 6 μm and stained with Masson's trichome. The area of fibrosis in myocardial tissue was measured by computerized planimetry on five random fields per heart. A total of 65 to 75 fields were analyzed per treatment group and differences were analyzed by Student's t-test.
Three separate studies were performed to evaluate the efficacy of single agents and combinations with metabolic enhancers in the TAC model of heart failure. In the first study, mice were treated with either trimetazidine alone or trimetazidine+nicotinamide+succinate. In the second study, mice were treated with CV-8814 alone or trimetazidine+nicotinic acid+succinate. In the third study, mice were treated with […], CV-8814, or CV-8972. Overall, the activities of trimetazidine, CV-8814, and CV-8972 on most study endpoints were in good agreement across the three studies. In the third study, the three compounds were analyzed at equivalent mg/kg/day doses on a formula weight basis: 6 mg/kg/d for trimetazidine, 7.5 mg/kg/day for CV-8814; and 10 mg/kg/day for CV-8972. Therefore, the results from the third study are summarized here.

Where [2] appears, read: 20 μM perfusion, initial single agent study.

For `COc1ccc(CN2CCN(CCO)CC2)c(OC)c1OC` [CV-8814, 2-[4-[(2,3,4-trimethoxyphenyl)methyl]piperazin-1-yl]ethanol], in the experiment on explanted mouse hearts, the infarct size came to 52±4% and the “reduction of myocardial infarct size” value is listed as ~16%. In the experiment on explanted mouse hearts (setting [2]), the “left ventricular developed pressure (LVDP) at 20 min” value turned out to be 48±8 mmHg and the “left ventricular developed pressure (LVDP) at 170 min” value is given as 63±5 mm Hg. In addition, the “coronary flow at the end of the reperfusion period” value with explanted mouse hearts (20 μM perfusion, initial single agent study, control 54±6) was 90±14 μl/mL. Also, the “left ventricular fractional shortening (FS) at Week 6” value in experiment [1] (CV-8972 10, CV-8814 7.5 mg/kg/day, control 34%±3%) is reported as 44%±3%. Besides, in experiment [1], the “fibrosis of myocardial tissue after six weeks” value (shortened to “fibrosis of myocardial tissue”) stood at 6.6±0.6% and the “left ventricular ejection fraction (EF) throughout the six-week study” value (shortened to “left ventricular ejection fraction”) was “preserved”. Also, the “isovolumic relaxation time (IVRT) at Week 6” value in experiment [1] (control 35±1) came out at 28 ± 2 ms. In experiment [1] (control 36±1), the “isovolumic relaxation time (IVRT) at the three-week assessment” value was 33 ± 1 ms.
`O=C(O)c1cccnc1` [Nicotinic acid, nicotinic acid, reference compound]: in experiment [1], the “fibrosis of myocardial tissue” value is 8.2±1% and the “left ventricular ejection fraction” value was “neither TMZ nor nicotinic acid had a beneficial effect”.
With `COc1ccc(CN2CCNCC2)c(OC)c1OC` [TMZ, trimetazidine], in the experiment with explanted mouse hearts, the infarct size worked out at 56±3% and the “reduction of myocardial infarct size” value was ~9%. Also, the LVDP with explanted mouse hearts (20 μM TMZ alone, separate study, printed as TMZ vs. control) is listed as 49±5 mm Hg. Moreover, in the experiment with explanted mouse hearts (20 μM each, combination study), the “LVDP at T20” value was determined as 56±6 mm Hg and the “LVDP at T170” value worked out at 49±5 mm Hg. Besides, in experiment [1], the “fibrosis of myocardial tissue” value is listed as 7.6±1% and the “left ventricular ejection fraction” value is reported as “neither TMZ nor nicotinic acid had a beneficial effect”. For the same compound, in experiment [1] (TMZ 6 mg/kg/d), the “diastolic function during TAC-induced heart failure” value was “did not preserve diastolic function” and the “effect on FS” value is given as “did not have a significant effect”.
